Source: patent US9095577B2, “Stabilized amine-containing actives in oral film compositions” (MonoSol Rx, LLC, priority 2009, dated 2015)

Assay: Reaction of sweetener with the amine-containing active (gel formation)
Format: physicochemical
Procedure: It has been discovered that gellation and/or agglomeration of components particularly occurred when sucralose was added to the active ingredient (such as ondansetron). It has been determined that the particular choice of excipients combined together may be important to prevent the formation of undesirable gellation and/or agglomeration. […] It is hypothesized that the amines on the active component may form quaternary salts with the primary alkyl chlorides on the sucralose. Quaternary polymers make good hydrogels, and thus undesirably form a gel-like structure, which is problematic in the processing of film matrices to form films having a uniformity of content.

## OC[C@H]1O[C@@](CO)(O[C@H]2O[C@H](CO)[C@@H](O)[C@H](O)[C@H]2O)[C@@H](O)[C@@H]1O [sucrose]
  reaction with the amine-containing active (gel formation): did not react
